Measured values: US11896589B2, “Diazinyl amino acridines and medical uses thereof” (MyCural Therapeutics AB, priority 2018, dated 2024)

Tests used:
[1] = biological target: T1, MYC:MAX heterodimer (MYCbHLHZip, labelled MAXbHLHZip) (Homo sapiens, UniProt P01106); assay: Assay 1A MYC:MAX heterodimer MST assay; type: binding; details: thermophoresis shift of 1 μM labelled MAXbHLHZip with 1 μM MYCbHLHZip
T1 construct: MYC:MAX heterodimer formation assay based on recombinant proteins
Description: FIG. 1: A) Microscale thermophoresis (MST) of fluorescently labeled MAX in a MYC:MAX heterodimer formation assay based on recombinant proteins. MST of labeled MAXbHLHZip after titration of Example 1 pre-incubated with 1 μM MYCbHLHZip, or with 1 μM MAXbHLHZip. Fluorescence intensity of labeled MAXbHLHZip relative DMSO was plotted against Example 1 concentration. B) Surface plasmon resonance (SPR) of MYC:MAX heterodimer formation assay. MAXbHLHZip was immobilized by an amino coupling procedure to a CM5 sensor chip. MYCbHLHZip pre-incubated with or without compound (as indicated) was injected over MAX for 180 seconds, allowed to dissociate for 240 seconds and regenerated. […] C) MYC binding response units (RU) plotted against Example 1 concentration from which an IC50 of Example 1 inhibition of MYC:MAX heterodimer formation is determined, summary of four experiments. […]
(§1) MST measures the movement of fluorescent labelled molecules in a microscopic temperature gradient. Changes in charge, size or of the hydration shell of the fluorescent molecule affects its migration in the temperature gradient, which can be detected by the fluorescence of the molecule (See Seidel et al., Microscale thermophoresis quantifies biomolecular interactions under previously challenging conditions, METHODS (2013)). […] Capillaries were scanned to measure initial fluorescence of compound. […]

MAX:MAX (MAXbHLHZip) = biological target: T2, MAX:MAX (MAXbHLHZip) (Homo sapiens, UniProt P61244); assay: Assay 1A MST, labelled MAX pre-mixed with MAX instead of MYC; type: binding; details: 1 μM MAX instead of MYC
T2 construct: Recombinant MYC bHLHZip and MAX bHLHZip proteins were titrated
Description: FIG. 1: A) Microscale thermophoresis (MST) of fluorescently labeled MAX in a MYC:MAX heterodimer formation assay based on recombinant proteins. MST of labeled MAXbHLHZip after titration of Example 1 pre-incubated with 1 μM MYCbHLHZip, or with 1 μM MAXbHLHZip. Fluorescence intensity of labeled MAXbHLHZip relative DMSO was plotted against Example 1 concentration. B) Surface plasmon resonance (SPR) of MYC:MAX heterodimer formation assay. MAXbHLHZip was immobilized by an amino coupling procedure to a CM5 sensor chip. MYCbHLHZip pre-incubated with or without compound (as indicated) was injected over MAX for 180 seconds, allowed to dissociate for 240 seconds and regenerated. […] C) MYC binding response units (RU) plotted against Example 1 concentration from which an IC50 of Example 1 inhibition of MYC:MAX heterodimer formation is determined, summary of four experiments.
as §1

[2] = test system: MYC-ER driven transcription of ODC1, RSG16, CR2 in U2OS-MYC-ER cells; assay: Assay 4 MYC target gene expression (RT-qPCR); type: cell-based
Description: FIG. 5: A) Inhibition of MYC transactivation of target genes (A) ODC1, (B) RSG16, and (C) CR2 as determined by RT-qPCR analysis, based on three biological experiments with three technical repeats each. U2OS-MYC-ER cells were treated with or without 100 nM 4-hydroxy-tamoxifen (HOT) for 4 hours, after which DMSO or Example 1 was added for 24 hours before total RNA was extraction. Fold changes in mRNA expression are presented relative to DMSO in non-HOT-treated cells after normalization to GAPDH, used as reference gene. Assay 4: Gene Expression To investigate the effect of the compounds on MYC-driven transcription, we utilized U2OS cells containing a MYC-estrogen receptor (MYC-ER) fusion protein, the activity of which is regulated by the ligand 4-hydroxytamoxifen (HOT). RT-qPCR was performed essentially as described in Bahram, F. et al. Interferon-gamma-induced p27KIP1 binds to and targets MYC for proteasome-mediated degradation. Oncotarget 7, 2837-2854, doi:10.18632/oncotarget.6693 (2016).

[3] = test system: human MYCN-amplified SK-N-DZ neuroblastoma xenograft tumors; assay: In vivo mouse xenograft tumor model; details: 20 mg/kg i.p. daily, 1-2 weeks
Description: SK-N-DZ MYCN-amplified neuroblastoma xenograft tumors reaching a volume of 100-200 mm^3 were treated with Example 1 (20 mg/kg body weight) or vehicle injected i.p. daily for 1-2 weeks. A) Apoptosis was determined by TUNEL staining of tumor tissues from mice treated with Example 1 or vehicle, counterstained with DAPI. Quantification of TUNEL staining was normalized to whole tumor areas as determined by DAPI from three Example 1- and three vehicle-treated mice. Student's t-test of Example 1 vs. vehicle; p=0.0083. B) Cell proliferation determined by Ki67 of tumor tissues from mice treated with Example 1 or vehicle, respectively, and counterstained with DAPI. Quantification of Ki67 negative areas normalized to whole tumor areas by DAPI from three Example 1- and three vehicle-treated mice. Student's t-test of Example 1 vs. vehicle; p=0.0380. C) Microvascular density visualized by CD31 staining in the red. C) Quantification of CD31 staining normalized to whole tumor areas from three Example 1- and three vehicle-treated mice. Student's t-test of Example 1 vs. vehicle; p=0.014. D) Detection of MYCN:MAX protein interaction by isPLA performed on tumor tissue from mice treated with Example 1 or vehicle using antibodies against MYCN and MAX. Quantification of MYCN:MAX isPLA signals in tumor tissue from Example 1- and vehicle-treated mice, presented as average number of dots from four randomly chosen microscopic fields from Example 1 treated mice normalized to corresponding values from vehicle-treated mice (F=28.102, P=0.008). E) Apoptosis determined from TUNEL stained tumor section derived from a MDA-MB231 xenograft mouse treated with Example 2 for 2 weeks. Quantification of apoptotic cells per counted field.
To validate the efficacy of Example 1 in tumor tissue in vivo, we utilized a mouse xenograft tumor model based on human MYCN-amplified SK-N-DZ neuroblastoma cells. Tumor cells (5×10^6) were injected into the flank of athymic nude mice and allowed to form tumors after which Example 1 or vehicle were administered by daily intraperitoneal injection at a dose of 20 mg/kg body weight for 1-2 weeks.

T2 sequence (P61244 22-102): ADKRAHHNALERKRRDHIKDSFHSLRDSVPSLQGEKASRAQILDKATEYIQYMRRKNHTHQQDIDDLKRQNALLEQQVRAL
T1 sequence (P01106 368-449 limits assumed, one chain of several): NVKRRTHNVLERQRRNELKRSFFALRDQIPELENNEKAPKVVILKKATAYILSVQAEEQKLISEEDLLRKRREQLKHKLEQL

Kd [1]: 4.3 µM
effect on labelled MAX thermophoresis when pre-mixed with MAX (MAX:MAX (MAXbHLHZip)): minor effects
Compound: CCOc1ccc2nc3cc(/N=N/c4ccc(N)nc4N)ccc3c(N)c2c1 [Example 1, 3-((9-amino-7-ethoxyacridin-3-yl)diazenyl)pyridine-2,6-diamine sulphate hydrate]
inhibition of gene expression, CR2 gene ([2]; 10 μM): 100%
inhibition of gene expression, ODC1 gene ([2]; 10 μM): 100%
inhibition of gene expression, RSG16 gene ([2]; 10 μM): 68%
HOT-induced expression of all three MYC target genes ([2]; 24 hours): significantly reduced
CD31 Decrease in microvascular density [3]: 44 % of vehicle
Ki67 Increase in Ki67-negative tumor area relative to vehicle [3]: 550%
MYCN:MAX interactions in tumors (isPLA) vs vehicle [3]: significant reduction
MYCN:MAX isPLA signal relative to vehicle [3]: 66 % of vehicle
TUNEL Increase in apoptotic tumor area relative to vehicle [3]: 1420%
apoptotic tumor areas (TUNEL) vs vehicle [3]: dramatic increase
microvascular density (CD31) vs vehicle [3]: significantly reduced
non-proliferative areas (Ki67) vs vehicle [3]: significant increase
